Assay in all cases: inhibition of tumour cell growth, NCI panel, 48 h
Assay [1] concerns COLO 205 colon.
The test system of assay [2] is HCC-2998 colon.
Assay [3] has as its system HCT-116 colon.
Assay [4] deals with HL-60(TB) leukemia.
Assay [5] has as its system M14 melanoma.
Assay [6] has as its system NCI-H23 lung.
Assay [7] relates to OVCAR-5 ovarian.
Assay [8] has as its system SW-620 colon.
Assay [9] relates to SF-268 CNS.
The subject of assay [10] is MDA-MB-231 breast.

SMILES strings stand for the structures. Values joined by “and” are separate entries in the source; they are usually repeats but may differ in a detail not shown here. Identical values can stand only once.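 Five compound concentrations were applied to cells in 96-well plates for 48 hours; endpoints were derived by simple linear interpolation of the resulting dose-response curve. Here, GI50 denotes the concentration required for 50% inhibition of growth. Definition used: TGI = concentration required for complete inhibition of growth.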 Bounds are passed on as bounds.

On to `Nc1c(O)cc(N=C2C(=O)C=CC=C2C(=O)O)c(O)c1C(=O)O`, for which the TGI in [1] was more than 100 µM; in assay [2] it was more than 31.6 µM; in [3] it was more than 100 µM; in assay [4], more than 100 µM; in [5], more than 59.2 µM; in assay [6] it was more than 100 µM. Moreover, the TGI in assay [7] and in assay [8] was more than 100 µM each time.

In the case of `Cc1cc(-c2ccccc2)nc(Nc2nc3ccccc3o2)n1`, the TGI in [1], in [2], in [3], in assay [4], in assay [5] and in assay [6] was more than 100 µM each time. Moreover, the TGI in [7], in assay [9] and in [8] was more than 100 µM throughout.

Turning to `COC(=O)C1=C(c2ccc(OC)c(OC)c2)OC(c2cc(OC)c(OC)c(OC)c2)C1` (configuration not stated), the TGI in [2], in assay [5], in [6], in assay [7], in assay [9] and in assay [8] was more than 100 µM throughout.

As to `CN=C(NC(=S)N(C)C)N(C)C`, the TGI in assay [2], in [3], in assay [4], in [5], in [6] and in [7] was more than 100 µM each time. The TGI in [9] and in [8] was more than 100 µM each time.

As for `Cc1cccc(C(C)C)c1N1C(=O)C(=O)C(c2nc3ccccc3o2)C(=O)C1=O`, the TGI in assay [1] is more than 100 µM; in assay [2], more than 100 µM; in assay [3] it was more than 100 µM; in [4], 80.9 µM; in assay [5] it was more than 100 µM; in assay [6], more than 100 µM. The TGI in assay [7], in assay [9] and in [8] was more than 100 µM throughout.

Turning to `N#CC1CCCCOCCOCCOCCOCCOCCCCCC1=O` (configuration not stated), the TGI in assay [1], in [2], in assay [3], in assay [4], in assay [5] and in assay [6] was more than 100 µM in each case. Also, the TGI in assay [7], in [9] and in assay [8] was more than 100 µM throughout.

`CCCCC(C)C(OC(=O)CC(CC(=O)O)C(=O)O)C(CC(C)CC(O)CCCCC(O)CC(O)C(C)N)OC(=O)CC(CC(=O)O)C(=O)O` (configuration not stated): the TGI in assay [1], in [2], in [3], in assay [4], in assay [5] and in assay [6] was more than 100 µM each time. For the same compound, the TGI in [7], in assay [9] and in assay [8] was more than 100 µM each time.

On to `C#CC[N+](C)(CC#C)CC#C`, for which the TGI in assay [1], in assay [2], in assay [4], in assay [5], in assay [6] and in [7] was more than 100 µM in each case. Besides, the TGI in assay [9] and in assay [8] was more than 100 µM in each case.

With `COc1cc(NS(C)(=O)=O)ccc1Nc1c2ccccc2nc2ccccc12`, the GI50 was 0.715 µM and 1.11 µM in assay [1]; 2.4 µM and 2.19 µM and 2.34 µM in [2]; 0.82 µM and 0.368 µM and 0.424 µM in assay [3]; 0.298 µM and 0.18 µM and < 0.0379 µM in [4]; 0.526 µM and 0.397 µM and 0.447 µM in [5]; 0.55 µM and 0.377 µM and 0.368 µM in [6]. In addition, the GI50 in assay [7] is 8.1 µM and 5.64 µM and 6.81 µM; in assay [9] it was 1.14 µM and 0.483 µM and 0.511 µM; in [8], 1.49 µM and 0.242 µM and 0.351 µM.

For `O=C(CC1(O)C(=O)Nc2ccc(Br)cc21)c1ccc(Cl)cc1Cl` (configuration not stated), the TGI in assay [1] is more than 100 µM; in assay [2] it was more than 100 µM; in assay [3], more than 100 µM; in assay [4], 48.3 µM; in assay [5] it was more than 100 µM; in assay [6], more than 100 µM. For the same compound, the TGI in assay [7], in assay [9] and in assay [8] was more than 100 µM throughout.

In the case of `O=[N+]([O-])c1ccc(Cl)c(C2CC(c3cccc4ccccc34)=Nc3ccccc3S2)c1` (configuration not stated), the TGI was more than 100 µM in assay [1]; more than 100 µM in assay [2]; 38.7 µM in [3]; 26.2 µM in assay [4]; 63.4 µM in assay [5]; 20.8 µM in assay [6]. Besides, the values for the TGI in assay [7], in [9] and in assay [8] were more than 100 µM, more than 92.1 µM and more than 66.7 µM, respectively.

As for `S=c1nc(COc2ccc(Cl)cc2Cl)[nH][nH]1`, the TGI in assay [2] is more than 100 µM; in assay [3], more than 100 µM; in assay [4] it was 88.8 µM; in assay [5], more than 100 µM; in assay [6], more than 100 µM; in [7], more than 100 µM. Also, the TGI in assay [9] and in [8] was more than 100 µM throughout.

On to `CS(=O)(=O)NNS(=O)(=O)c1ccccc1`, for which the TGI in assay [1], in assay [2], in assay [3], in assay [4], in [5] and in assay [6] was more than 100 µM in each case. Besides, the TGI in assay [9] and in [8] was more than 100 µM throughout.

Take `Cc1nnc2c3nnc(C)n3c3ccccc3n12`: the TGI in assay [1], in assay [2], in [3], in assay [5], in assay [6] and in assay [7] was more than 100 µM each time. For the same compound, the TGI in assay [9] and in assay [8] was more than 100 µM each time.

For the compound `NC(=O)c1c([N+](=O)[O-])cc(C(F)(F)F)cc1[N+](=O)[O-]`, the TGI in assay [1] is 62.7 µM; in [2], more than 100 µM; in [3] it was more than 100 µM; in assay [4], 47.4 µM; in assay [5], more than 100 µM; in assay [6], 98.9 µM. Moreover, the TGI in assay [7], in [9] and in assay [8] was more than 100 µM in each case.

Regarding `NC1=NC(c2ccc(Cl)cc2)N(c2ccc(S(N)(=O)=O)cc2)C(N)=N1` (configuration not stated), the TGI in [1], in [3], in [5], in [10], in assay [6] and in assay [7] was more than 100 µM throughout. In addition, the TGI in assay [9] and in [8] was more than 100 µM in each case.

In the case of `O=C(NCCO)c1ccc([N+](=O)[O-])cc1`, the TGI in [1], in [2], in assay [4], in assay [5], in [6] and in assay [9] was more than 100 µM each time. In [8], this compound showed a TGI of more than 100 µM.

For `C[N+](C)(C)CC1CCC/C1=N/O` (configuration not stated), the TGI is 38.7 µM in [1]; more than 100 µM in assay [2]; 46 µM in assay [3]; 35.3 µM in [4]; more than 100 µM in [5]; more than 100 µM in [6]. Further, the TGI in [7] is more than 100 µM; in assay [9] it was more than 100 µM; in assay [8], 19.5 µM.

Take `Cn1c(=O)c(NC(=O)C(Cl)(Cl)Cl)nc2ccccc21`: the TGI in [1], in assay [2], in assay [3], in [4], in assay [5] and in assay [6] was more than 100 µM in each case. For the same compound, the TGI in [9] and in [8] was more than 100 µM each time.

`O=C1NC(=O)C(=Nc2cccc3c(=O)[nH][nH]c(=O)c23)C(c2nc3ccccc3s2)C1=O` (configuration not stated): the TGI in assay [1], in [2], in assay [3], in assay [4], in [5] and in assay [6] was more than 100 µM throughout. The TGI in assay [9] and in [8] was more than 100 µM throughout.

Regarding `O=C(CCC(=O)Nc1ccc(Cl)c(Cl)c1)CC(=O)c1ccc(F)cc1`, the TGI in assay [1], in assay [2], in assay [3], in assay [4], in [5] and in [6] was more than 100 µM in each case. Besides, the TGI in assay [7], in [9] and in [8] was more than 100 µM in each case.

As to `COc1cccc(CSCC(=O)O)c1`, the TGI in assay [1], in [3], in [5], in [10], in assay [6] and in [7] was more than 100 µM in each case. The TGI in assay [9] and in assay [8] was more than 100 µM throughout.

Take `COC(=O)CCC1CCc2c(OC)ccc(OC)c2C1=O` (configuration not stated): the TGI in [1], in assay [2], in assay [4], in [5], in assay [6] and in assay [7] was more than 100 µM each time. For the same compound, the TGI in [9] and in assay [8] was more than 100 µM throughout.

For `Cc1ccc(NC(=O)C2C(=O)N(c3ccc(C)c(C)c3)C(=O)/C2=N\NC(N)=O)cc1C` (configuration not stated), the TGI in assay [1], in [2], in assay [3], in assay [4], in assay [5] and in [6] was more than 100 µM throughout. The TGI in assay [7], in assay [9] and in assay [8] was more than 100 µM each time.

For the compound `Cc1noc2c1C(=O)CCC2`, the TGI in assay [1], in assay [3], in assay [4], in assay [5], in assay [7] and in assay [9] was more than 100 µM throughout. The TGI in [8] is more than 100 µM.

With `CN(C)c1ccc(/C=C/c2ccc(/C=C/c3ccc(N(C)C)cc3)cc2)cc1`, the TGI in assay [1], in assay [2], in assay [3], in assay [4], in assay [5] and in [6] was more than 100 µM each time. Moreover, the TGI in assay [7], in assay [9] and in assay [8] was more than 100 µM in each case.

With `S=C(Nc1ccc(N=Nc2ccccc2)cc1)SCc1ccccc1`, the TGI was 42.1 µM in [1]; 31.9 µM in [3]; 37.6 µM in [5]; 28.9 µM in assay [10]; 30.7 µM in [6]; 36.6 µM in assay [9]. The compound further displayed a TGI in [8] of 44.5 µM.

Turning to `O=S(=O)(O)c1ccc(N=Nc2nc(C(F)(F)F)c(C(F)(F)F)[nH]2)cc1`, the TGI in [1] was more than 100 µM; in assay [3], more than 100 µM; in [4] it was more than 100 µM; in [5], 46.6 µM; in assay [6] it was 68.7 µM; in assay [7] it was 36 µM. Besides, the TGI in assay [9] and in assay [8] was more than 100 µM throughout.

As for `COC(=O)C(=CNC(N)=O)C(=O)OC`, the TGI in assay [1], in assay [3], in assay [5], in assay [6], in assay [7] and in [9] was more than 100 µM in each case. Further, the TGI in assay [8] is more than 100 µM.

As for `O=C(CSc1ncn[nH]1)C[P+](c1ccccc1)(c1ccccc1)c1ccccc1`, the TGI in [1], in assay [2], in assay [4], in [5], in assay [6] and in assay [7] was more than 100 µM in each case. For the same compound, the TGI in assay [9] and in [8] was more than 100 µM in each case.

As to `CCCCCCCCCCCCCCCCNCCCN(C)CCCN`, the TGI turned out to be 46.6 µM in assay [1]; 33.4 µM in assay [2]; 38 µM in [3]; 42.4 µM in [4]; 30.8 µM in assay [5]; 34.1 µM in assay [6]. The values for the TGI in [7], in assay [9] and in [8] were 31.7 µM, 34.9 µM and 36.3 µM, respectively.

On to `CN(C)C(=Nc1nc(=[N+](C)C)ss1)N(C)C`, for which the TGI in [2], in assay [4], in assay [5], in [6], in assay [7] and in [9] was more than 100 µM throughout. In addition, in assay [8], the TGI is more than 100 µM.
